This is an account of results in publication PMC12794188, “Maternal–Fetal Transfer and Toxicokinetics of 2,2′,5,5′-Tetrachlorobiphenyl, [^14C]-PCB52, Following Intratracheal Administration” (Chemical Research in Toxicology, 2025).

Several values for one entry are separate records, joined by “and”; a condition that tells them apart may be missing. Equal values may be shown once.

Details of series [1]: method as in Pu et al. Particulars: ref Pu et al., cited from earlier work.
Series [2] is described as follows: Pulmonary uptake, exhalation and excretion (mass balance) after intratracheal [14C]-PCB52. Format: in vivo, Sprague–Dawley rats. Here is the method: Female Sprague–Dawley rats (8 weeks old) weighing 237–269.7 g (mean = 247.5 g) (Envigo RMS, LLC, Indianapolis, IN) were used for this study. All animal experiments were performed following the protocols evaluated and approved by the University of Iowa Institutional Animal Care and Use Committee (approval number 3091097). After arrival, the animals were acclimated for 7 days. The animals were housed in a light and temperature-controlled environment with ad libitum access to food and water during quarantine and throughout the study. Timed pregnancy was achieved by harem mating. , Briefly, one male and two female rats were placed together in the evening and checked for vaginal plug the following day. If vaginal plug was present, the male was removed from the breeding cage, and the gestation day 0 (GD 0), 0-day post coitum was assigned. Pregnancies were confirmed by ultrasound scan at GD 9. The dams were exposed at GD 11 (±1 day) to capture the period of early organogenesis and hormonal function, which falls within week 3 of human embryonic development. ,− On the day of the experiment, pregnant rats were intratracheally administered an average of 40 μg (range, 35–45 μg) of [^14C]-PCB52 in 100 μL of exposure solution. Although the dose used in this study exceeded the tolerable daily intake (TDI) of PCBs for healthy individuals, which is 1.6 μg per day for an individual weighing 80 kg, the use of higher acute doses has been established in toxicological studies intended for risk assessment. The intratracheal instillation method was chosen for administering [^14C]-PCB52 to represent inhalation exposures, capture exhaled concentration, and efficiently utilize the limited availability of the cost-intensive radiolabeled PCB52. , Although inhalation exposure would better represent real-world exposures to airborne LC-PCBs, it would not allow us to accurately measure the amount of PCB52 exhaled into the air after exposure and is experimentally infeasible. […] All intratracheal instillations were done under light anesthesia, achieved using a 4% isoflurane concentration via a Fortec vaporizer (Cyprane, Keighley, UK). The animals recovered from anesthesia within 1 min. Subsequently, the animals were housed within a cylindrical glass chamber measuring 2 L in volume, equipped with glass drainage mechanisms to facilitate urine collection and a metallic screen to segregate urine from feces (as in Figure S1). Air was drawn from the chamber at 6.0 L/min through a cartridge containing the XAD-2 polymeric resin to capture any exhaled [^14C]-PCB52. For periods longer than 24 h postexposure, exposed dams were placed in a metabolic cage, which was fitted with a cartridge containing XAD-2 to capture exhaled [^14C]-PCB52 as in other end points.
Maternal blood, urine, and feces samples were collected immediately before and at 0.21, 1.67, 12, 24, 48, and 96 h after lung dosing. The exposed dams were euthanized using 4% isoflurane, followed by cervical dislocation and exsanguination via a cardiac puncture. Euthanasia was consistently performed during the light cycle. Dams’ fur was wiped and analyzed for radioactivity. Using the retro-orbital blood collection method, 0.5–1.5 mL ([…] of an exposed pregnant rat’s body weight) of blood sample was collected from each of the dams until the individual dams were necropsied for whole-body tissue harvesting. At the end of the exposure period, the chamber’s interior walls were rinsed separately with water and acetone/hexane (25 – 45 mL) and wiped to measure residues. From the collected whole blood samples, 100 μL were aliquoted into three vials each, and the remaining blood was allowed to clot at room temperature before being centrifuged to yield serum. The placentas, developing fetuses, and whole-body tissue samples were harvested immediately before exposure and at 0.21, 1.67, 12, 24, and 96 h postexposure. […]

Regarding `Clc1ccc(Cl)c(-c2cc(Cl)ccc2Cl)c1` [PCB52, 2,2′,5,5′-Tetrachlorobiphenyl], the half-life in series [1] (intravenous administration in male rats) was ~10 days. Further, the half-life estimate in series [1] (intravenous, male rats, measured only up to 72 h postdosing) is 10 days. The dose retained in series [2] (after 96 h) amounted to 41.1%. In series [2] (at 96 h postexposure), this compound returned an elimination through feces of 42.5%, an elimination through urine of 14.5% and a total elimination of 58.9%. In addition, in series [2] (by 96 h postexposure), the “exhaled proportion of the administered dose” value turned out to be 1.33 ± 0.51%. Besides, the “average lung uptake (administered dose distributed to the systemic circulation)” value in series [2] (intratracheal administration) is 99.4 ± 0.5% and 99.40 ± 0.51%.

For orientation: half-life means the time in which the quantity being followed falls by half.
